Results: patent publication US20230011052A1, “METHOD AND COMPOSITIONS FOR REGULATED ARMORING OF CELLS” (Senti Biosciences, Inc., priority 2019, published 2023)
“And” between values parts separate entries of the source, which are not always exact repeats. Equal values may be shown once. Read-outs that look alike come from different tables or passages of the source.

Tests used:
ERT2 domain = biological target: T1, ERT2 domain (Homo sapiens, UniProt P03372, G400V/L544A/M543A); assay: Tamoxifen (ERT2) regulatable TF reporter and CAR expression in T cells (MFI); assay type: cell-based; details: T cells with ERT2 regulatable TF 565 and reporter alone (1066) or on construct also encoding a CAR (2235); 1, 0.25, 0.1 uM or no drug; Day 9 MFI
T1 construct: expressed in transfected cells; host or cells: CD4/CD8 T cells, virally transduced
T1 sequence (P03372 311-547 G400V/M543A/L544A limits assumed): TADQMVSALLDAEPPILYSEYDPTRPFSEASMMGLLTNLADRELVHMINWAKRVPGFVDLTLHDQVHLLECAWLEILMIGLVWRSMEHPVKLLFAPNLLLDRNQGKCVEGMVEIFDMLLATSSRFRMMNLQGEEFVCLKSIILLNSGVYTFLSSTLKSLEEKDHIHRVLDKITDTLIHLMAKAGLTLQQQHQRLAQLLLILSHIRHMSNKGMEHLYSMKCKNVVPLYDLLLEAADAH
Excerpt: Various regulatable TF (also referred to as an activation-conditional control polypeptide (ACP) for drug-inducible formats or “synTF”) and expression cassettes were constructed as shown in FIG. 17A. […] The cassettes were cloned into a viral vector and used to produce virus.
On Day 0, CD4/CD8 T cells (FL00711) were thawed and activated with Dynabeads (3:1) in complete T cell media (Optimizer+Supplements—Gibco+5% human serum)+IL-2 (100 Units/ml). On Day 2, cells were transduced with 1×10^5 GV of virus. […] Florescent median intensity (MFI) was assessed of Day 9.

[1] = tested on: T cells engineered with drug-inducible ACP (NS3/NS4 protease cleavage site); assay: In vivo regulated armoring: plasma hIL-12 (Luminex) and circulating human T cells (flow cytometry); set-up: species or system NSG mice; details: 25 mg/kg Grz IP, BID; T cells with SB01845 & SB02357
Protocol: Negative controls were untransduced T cells. […] Dosing: Drug treated mice received 25 mg/kg Grz at each dosing time point; vehicle treated mice received equivalent volume of vehicle; all Grz dosing administered IP. Dosing continued BID on days 2-4. […] Mice were bled on day 4 and sacrificed/bled on day 5.

target cells = assay: T cell killing assay (LDH release); assay type: cell-based; details: +/- 2 μM GRZ for 48 hours
Protocol: For T cell killing assays, on Day 0 T cells were seeded at 1e6/mL+/−2 μM of GRZ for 48 hours to induce payload. On Day 2, target cells were counted and 35K were seeded per well in a 96 well plate for 4-6 hrs in target cell media. Then target cell media was removed and T cells were counted and 35K CAR normalized T cells were seeded [E:T— 1:1] in 200 µl of Optimizer media overnight. On Day 3, cells were transferred to a V-bottom plate, spun down, and supernatant harvested to determine killing activity using an LDH assay (CyQUANT LDH Cytotoxicity Assay; Life Technologies).

[2] = tested on: T cells engineered with drug-inducible ACP (inducible IL-12); assay type: in vivo; details: for Human T cells in the blood (hCD3+: hCD45+): inducible IL-12 T cells, individual mice
Protocol: Negative controls were untransduced T cells. […] All Grz dosing was administered IP.
A first series of Grazoprevir (Grz) dosing regimens were assessed, as described in Table 25.

[3] = tested on: T cells engineered with drug-inducible ACP (inducible IL-12)
Protocol: Grazoprevir potassium salt was dissolved sequentially in DMSO, PEG400, and PBS to reach 10 mg/mL. All Grz dosing was administered IP. 20e6 T cells per mouse were injected by tail vein injection, as indicated. Luminex assay was run to assess levels of hIL-12 in mouse plasma. Presence of human T cells in mouse blood was analyzed by flow cytometry.
Following the results of the experiments above, animals were dosed (IP) 60 mg/kg for 3 days once a day. Recombinant (hIL-2 1×10^4 IU) was also administered as indicated.

CC/C(=C(\c1ccccc1)c1ccc(OCCNC)cc1)c1ccccc1 [N-desmethyltamoxifen]
reporter (mCherry) expression (ERT2 domain): did not result expression of the reporter

C=C[C@@H]1C[C@]1(NC(=O)[C@@H]1C[C@@H]2CN1C(=O)[C@H](C(C)(C)C)NC(=O)O[C@@H]1C[C@H]1CCCCCc1nc3ccc(OC)cc3nc1O2)C(=O)NS(=O)(=O)C1CC1.O [grazoprevir]
hIL-12 in the plasma of mice above vehicle [1]: ~100 fold
difference in killing in the presence or absence of grazoprevir (target cells): No noticeable differences in killing
Human T cells in the blood (hCD3+: hCD45+) ([2]; Day 4, 25 mg/kg BID Grz IP, 25 mg/kg): 5.42 % of live cells and 0.08 % of live cells and 4.07 % of live cells and 3.61 % of live cells and 3.88 % of live cells and 5.91 % of live cells and 4.2 % of live cells and 3.14 % of live cells
Human T cells in the blood (hCD3+: hCD45+) ([2]; Day 4, 50 mg/kg Grz IP, 50 mg/kg): 4.09 % of live cells and 2.96 % of live cells and 3.7 % of live cells and 1.62 % of live cells and 4.16 % of live cells and 2.57 % of live cells and 4.55 % of live cells and 2.58 % of live cells
Human T cells in the blood (hCD3+: hCD45+) ([2]; Day 4, 75 mg/kg Grz IP, 75 mg/kg): 2.95 % of live cells and 3.14 % of live cells and 2.6 % of live cells and 0* % of live cells (2×) and 2.41 % of live cells and 1.43 % of live cells and 2.87 % of live cells
Human T cells in the blood (hCD3+: hCD45+) ([2]; Day 4, 25 + 50 mg/kg Grz IP, 50 mg/kg): 2.18 % of live cells and 6.98 % of live cells and 6.53 % of live cells and 13 % of live cells and 2.24 % of live cells and 4.72 % of live cells and 5.64 % of live cells and 7.89 % of live cells
serum IL-12 levels ([2]; Day 8): returned to baseline
Human T cells in the blood (hCD3+: hCD45+) ([2]; Day 8, 25 mg/kg BID Grz IP, 25 mg/kg): 6.78 % of live cells and 0.077 % of live cells and 3.63 % of live cells and 2.46 % of live cells and 2.07 % of live cells and 3.45 % of live cells and 2.27 % of live cells and 4.09 % of live cells
Human T cells in the blood (hCD3+: hCD45+) ([2]; Day 8, 50 mg/kg Grz IP, 50 mg/kg): 7.36 % of live cells and 10.9 % of live cells and 7.31 % of live cells and 8.1 % of live cells and 9.23 % of live cells and 5.88 % of live cells and 6.63 % of live cells and 7.34 % of live cells
Human T cells in the blood (hCD3+: hCD45+) ([2]; Day 8, 75 mg/kg Grz IP, 75 mg/kg): 8.19 % of live cells and 9.67 % of live cells and 6.55 % of live cells and 0.028 % of live cells and 11.6 % of live cells and 4.7e−003 % of live cells and 11 % of live cells and 3.79 % of live cells
Human T cells in the blood (hCD3+: hCD45+) ([2]; Day 8, 25 + 50 mg/kg Grz IP, 50 mg/kg): 7.09 % of live cells and 7.85 % of live cells and 9 % of live cells and 12 % of live cells and 6.34 % of live cells and 7.02 % of live cells and 8.65 % of live cells and 5.04 % of live cells
mice found dead ([2]; Day 12): 2 of 8
serum IL-12 levels ([2]; Day 12): remained stable
Human T cells in the blood (hCD3+: hCD45+) ([2]; Day 12, 25 mg/kg BID Grz IP, 25 mg/kg): 13.5 % of live cells and 0.21 % of live cells and 13.3 % of live cells and 9.36 % of live cells and 9.33 % of live cells and 14 % of live cells and 16.1 % of live cells and 13.8 % of live cells
Human T cells in the blood (hCD3+: hCD45+) ([2]; Day 12, 25 + 50 mg/kg Grz IP, 50 mg/kg): 10.9 % of live cells and 12.2 % of live cells and 11.1 % of live cells and 16.3 % of live cells and 2.61 % of live cells and 9.13 % of live cells
mice that lost ~15% weight during the first week of dosing ([3]; 60 mg/kg IP, these mice received only 30 mg/kg on day 3): 3 of 10
plasma IL-12 ([3]; Day 4, first on week): significant Grazoprevir dose dependent induction of IL-12
injected human T cells in blood when Grz was administered ([3]; Day 4, 60 mg/kg IP once a day for 3 days): significantly less
plasma IL-12 levels between drug and no-drug groups ([3]; Day 11, off week): equivalent
plasma IL-12 ([3]; Day 18, second on week): further significant Grazoprevir dose dependent induction of IL-12
injected human T cells in blood, inducible system groups with vs without Grz ([3]; Days 11, 18, and 25): no difference
organ findings at end time point ([3]; necropsy): pale kidneys, thick diaphragm, enlarged spleen, thick liver lobe, white/yellow lump growing inside the liver, and organs (liver, stomach, spleen) sticking with peritoneal wall and each other
body weight ([3]; time course): transient weight loss
